Values after ≈ are worked out from the molar mass of the structure shown. Values joined by “and” are separate entries in the source; they are usually repeats but may differ in a detail not shown here. Equal entries are not always repeated. Where two headings read alike, the source gives them in different places.
Columns and labels:
[1] = molecular target: AChE from electric eel (EeAChE) (Electrophorus electricus, UniProt O42275); test: biochemical; assay type: biochemical
[2] = molecular target: BuChE from equine serum (EqBuChE) (Equus caballus, UniProt P81908); test: biochemical; settings: read-out: IC50 BuChE
[3] = system: Staphylococcus aureus ATCC 29213; test: Antibacterial microdilution broth method (EUCAST); assay type: cell-based
[4] = system: methicillin-resistant Staphylococcus aureus ATCC 43300; test: Antibacterial microdilution broth method (EUCAST); assay type: cell-based; settings: ATCC 43300 / MRSA
[5] = system: Staphylococcus epidermidis ATCC 12228; test: Antibacterial microdilution broth method (EUCAST); assay type: cell-based
[6] = system: Enterococcus faecalis ATCC 29212; test: Antibacterial microdilution broth method (EUCAST); assay type: cell-based
[7] = system: Escherichia coli ATCC 25922; test: Antibacterial microdilution broth method (EUCAST); assay type: cell-based
[8] = system: Acinetobacter baumannii ATCC 19606; test: Antibacterial microdilution broth method (EUCAST); assay type: cell-based
[9] = system: Pseudomonas aeruginosa ATCC 27853; test: Antibacterial microdilution broth method (EUCAST); assay type: cell-based
[10] = system: Candida albicans ATCC 24443; test: microbe, parasite or virus in culture; assay type: cell-based
Candida krusei ATCC 6258 = test: microbe, parasite or virus in culture; assay type: cell-based; settings: Pichia kudriavzevii
[11] = system: Candida parapsilosis ATCC 22019; test: microbe, parasite or virus in culture; assay type: cell-based; settings: Lodderomyces parapsilosis
[12] = system: Candida tropicalis ATCC 750; test: microbe, parasite or virus in culture; assay type: cell-based
[13] = system: Trichophyton interdigitale ATCC 9533; test: microbe, parasite or virus in culture; assay type: cell-based
[14] = system: Klebsiella pneumoniae ATCC 10031; settings: for MIC KP 24 h: 24 h incubation; for MIC KP 48 h: 48 h incubation
[15] = ATCC29213, 24 h, read-out: MIC SA 24 h
[16] = ATCC29213, 48 h, read-out: MIC SA 48 h
[17] = ATCC12228, 24 h, read-out: MIC SE 24 h
[18] = ATCC12228, 48 h, read-out: MIC SE 48 h
[19] = ATCC29212, 24 h, read-out: MIC EF 24 h
[20] = ATCC29212, 48 h, read-out: MIC EF 48 h
[21] = ATCC25922, 24 h, read-out: MIC EC 24 h
[22] = ATCC25922, 48 h, read-out: MIC EC 48 h
[23] = ATCC19606, 24 h, read-out: MIC ACI 24 h
[24] = ATCC19606, 48 h, read-out: MIC ACI 48 h
[25] = ATCC27853, 24 h, read-out: MIC PA 24 h
[26] = ATCC27853, 48 h, read-out: MIC PA 48 h
[27] = ATCC24443, 24 h, read-out: MIC CA 24 h
[28] = ATCC24443, 48 h, read-out: MIC CA 48 h
[29] = ATCC6258, 24 h, read-out: MIC CK 24 h
[30] = ATCC6258, 48 h, read-out: MIC CK 48 h
[31] = ATCC22019, 24 h, read-out: MIC CP 24 h
[32] = ATCC22019, 48 h, read-out: MIC CP 48 h
[33] = ATCC750, 24 h, read-out: MIC CT 24 h
[34] = ATCC750, 48 h, read-out: MIC CT 48 h
[35] = ATCC9533, 72 h, read-out: MIC TI 72 h
[36] = ATCC9533, 120 h, read-out: MIC TI 120 h
[37] = mean ± SD, n = three independent experiments, ATCh 40 µM, read-out: IC50 AChE
[38] = mean ± SD, n = three independent experiments, BTCh 40 µM

Chain of AChE from electric eel (EeAChE) (O42275 24-633): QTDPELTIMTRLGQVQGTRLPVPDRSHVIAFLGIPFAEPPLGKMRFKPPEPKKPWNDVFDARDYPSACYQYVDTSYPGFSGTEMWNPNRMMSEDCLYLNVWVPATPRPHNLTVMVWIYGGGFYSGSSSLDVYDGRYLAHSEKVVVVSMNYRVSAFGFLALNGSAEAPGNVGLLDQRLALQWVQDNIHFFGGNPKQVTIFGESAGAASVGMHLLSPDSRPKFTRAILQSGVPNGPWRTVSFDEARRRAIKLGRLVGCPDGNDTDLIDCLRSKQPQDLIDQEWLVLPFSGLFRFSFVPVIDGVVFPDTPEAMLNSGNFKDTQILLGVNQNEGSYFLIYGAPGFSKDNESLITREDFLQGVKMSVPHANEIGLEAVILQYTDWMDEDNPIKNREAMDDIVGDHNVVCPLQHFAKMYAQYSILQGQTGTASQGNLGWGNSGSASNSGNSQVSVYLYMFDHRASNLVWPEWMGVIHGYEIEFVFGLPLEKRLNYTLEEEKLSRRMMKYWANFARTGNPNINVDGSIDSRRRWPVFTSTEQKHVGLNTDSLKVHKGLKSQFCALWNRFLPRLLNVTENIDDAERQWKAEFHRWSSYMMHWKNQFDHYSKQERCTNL
Chain of BuChE from equine serum (EqBuChE) (P81908 whole entry): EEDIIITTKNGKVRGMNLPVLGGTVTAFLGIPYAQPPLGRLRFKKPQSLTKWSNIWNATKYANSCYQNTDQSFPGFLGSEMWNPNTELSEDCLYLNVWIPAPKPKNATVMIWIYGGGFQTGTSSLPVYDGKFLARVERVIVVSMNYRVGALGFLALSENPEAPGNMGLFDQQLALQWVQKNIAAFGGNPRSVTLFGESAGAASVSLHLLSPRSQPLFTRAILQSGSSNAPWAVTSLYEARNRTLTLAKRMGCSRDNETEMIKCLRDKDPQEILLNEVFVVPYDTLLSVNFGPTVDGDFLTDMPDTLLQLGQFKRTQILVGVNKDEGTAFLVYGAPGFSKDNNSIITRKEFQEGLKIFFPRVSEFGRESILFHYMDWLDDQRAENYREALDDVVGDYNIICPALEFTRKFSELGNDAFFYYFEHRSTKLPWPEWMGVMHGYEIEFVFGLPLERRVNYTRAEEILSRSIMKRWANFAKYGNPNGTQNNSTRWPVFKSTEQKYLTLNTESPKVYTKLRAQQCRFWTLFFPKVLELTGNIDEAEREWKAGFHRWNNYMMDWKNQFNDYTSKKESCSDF
Method for HepG2 cells: Cytotoxicity of the tested compounds was measured using the standard hepatic cell line HepG2. The used CellTiter 96® assay is based on the reduction of tetrazolium dye (MTS) in living cells to formazan, which is then determined colorimetrically.

Row | SMILES | Selectivity AChE/BuChE [1] | MIC [3, 15] | MIC [3, 16] | MIC ([4]; 24 h, read-out: MIC MRSA 24 h) | MIC ([4]; 48 h, read-out: MIC MRSA 48 h) | MIC [5, 17] | MIC [5, 18] | MIC [6, 19] | MIC [6, 20] | MIC [7, 21] | MIC [7, 22] | MIC [8, 23] | MIC [8, 24] | MIC [9, 25] | MIC [9, 26] | MIC [10, 27] | MIC [10, 28] | MIC (Candida krusei ATCC 6258; [29]) | MIC (Candida krusei ATCC 6258; [30]) | IC50 [2, 38] | further results
1 | NNC(N)=O [semicarbazide, reference compound] | 0.13 |  |  |  |  |  |  |  |  |  |  |  |  |  |  |  |  |  |  |  | IC50 ([1]; read-out: IC50 AChE): 48.1 ± 0.84 µM; IC50 [2]: 365 ± 16.8 µM; Cytotoxicity in HepG2 in words (HepG2 cells): no significant cytotoxicity
2 | [H]/N=C(\N)NN=Cc1ccc([N+](=O)[O-])s1 [Compound 1o, (E)-2-[(5-Nitrothiophen-2-yl)methylene]hydrazine-1-carboximidamide] | 0.11 | 125 µM (≈ 26.7 µg/mL) | 250 µM (≈ 53.3 µg/mL) | 125 µM (≈ 26.7 µg/mL) | 250 µM (≈ 53.3 µg/mL) | 62.5 µM (≈ 13.3 µg/mL) | 62.5 µM (≈ 13.3 µg/mL) | 250 µM (≈ 53.3 µg/mL) | 500 µM (≈ 107 µg/mL) | 62.5 µM (≈ 13.3 µg/mL) | 62.5 µM (≈ 13.3 µg/mL) | 125 µM (≈ 26.7 µg/mL) | 125 µM (≈ 26.7 µg/mL) | 500 µM (≈ 107 µg/mL) | 500 µM (≈ 107 µg/mL) | > 500 µM | > 500 µM | 500 µM (≈ 107 µg/mL) | 500 µM (≈ 107 µg/mL) | 204 to 286 µM and 286 µM | MIC [11, 31]: > 500 µM; MIC [11, 32]: > 500 µM; MIC [12, 33]: > 500 µM; MIC [12, 34]: > 500 µM; MIC [13, 35]: 250 µM (≈ 53.3 µg/mL); MIC [13, 36]: 250 µM (≈ 53.3 µg/mL); IC50 [1, 37]: 31.7 ± 1.34 µM; MIC KP 24 h [14]: 125 µM (≈ 26.7 µg/mL); MIC KP 48 h [14]: 125 µM (≈ 26.7 µg/mL)
3 | N=C(NN)NN [1,3-diaminoguanidine, reference compound] | 0.15 |  |  |  |  |  |  |  |  |  |  |  |  |  |  |  |  |  |  | 283 ± 8.94 µM | IC50 [1]: 41.71 ± 0.23 µM; Cytotoxicity in HepG2 in words (HepG2 cells; range of tested concentrations up to 500 µM): no significant cytotoxicity
4 | [H]/N=C(\N)NN=Cc1cc(Cl)cc(I)c1O [Compound 1l, (E)-2-(5-Chloro-2-hydroxy-3-iodobenzylidene)hydrazine-1-carboximidamide] | 4.08 | 500 µM (≈ 169 µg/mL) | 500 µM (≈ 169 µg/mL) | 250 µM (≈ 84.6 µg/mL) | 250 µM (≈ 84.6 µg/mL) | 250 µM (≈ 84.6 µg/mL) | 250 µM (≈ 84.6 µg/mL) | 250 µM (≈ 84.6 µg/mL) | 250 µM (≈ 84.6 µg/mL) | 250 µM (≈ 84.6 µg/mL) | 250 µM (≈ 84.6 µg/mL) | 500 µM (≈ 169 µg/mL) | 500 µM (≈ 169 µg/mL) | > 500 µM | > 500 µM | > 500 µM | > 500 µM | 500 µM (≈ 169 µg/mL) | 500 µM (≈ 169 µg/mL) | < 20 µM and 5.42 µM | MIC [11, 31]: 500 µM (≈ 169 µg/mL); MIC [11, 32]: 500 µM (≈ 169 µg/mL); MIC [12, 33]: 500 µM (≈ 169 µg/mL); MIC [12, 34]: 500 µM (≈ 169 µg/mL); MIC [13, 35]: 125 µM (≈ 42.3 µg/mL); MIC [13, 36]: 125 µM (≈ 42.3 µg/mL); IC50 [1, 37]: 22.1 ± 0.55 µM; MIC KP 24 h [14]: 250 µM (≈ 84.6 µg/mL); MIC KP 48 h [14]: 250 µM (≈ 84.6 µg/mL)
5 | [H]/N=C(\N)NN=Cc1cc(I)ccc1O [Compound 1i, (E)-2-(2-Hydroxy-5-iodobenzylidene)hydrazine-1-carboximidamide] | 1.27 | 125 µM (≈ 38 µg/mL) | 125 µM (≈ 38 µg/mL) | 125 µM (≈ 38 µg/mL) | 125 µM (≈ 38 µg/mL) | 250 µM (≈ 76 µg/mL) | 250 µM (≈ 76 µg/mL) | 500 µM (≈ 152 µg/mL) | 500 µM (≈ 152 µg/mL) | 250 µM (≈ 76 µg/mL) | 250 µM (≈ 76 µg/mL) | 500 µM (≈ 152 µg/mL) | 500 µM (≈ 152 µg/mL) | 500 µM (≈ 152 µg/mL) | 500 µM (≈ 152 µg/mL) | 500 µM (≈ 152 µg/mL) | 500 µM (≈ 152 µg/mL) | 250 µM (≈ 76 µg/mL) | 250 µM (≈ 76 µg/mL) | < 20 µM and 19.8 µM | MIC [11, 31]: 250 µM (≈ 76 µg/mL); MIC [11, 32]: 250 µM (≈ 76 µg/mL); MIC [12, 33]: 500 µM (≈ 152 µg/mL); MIC [12, 34]: 500 µM (≈ 152 µg/mL); MIC [13, 35]: 62.5 µM (≈ 19 µg/mL); MIC [13, 36]: 125 µM (≈ 38 µg/mL); IC50 [1, 37]: 25 ± 0.5 µM; MIC KP 24 h [14]: 250 µM (≈ 76 µg/mL); MIC KP 48 h [14]: 250 µM (≈ 76 µg/mL)
6 | [H]/N=C(\N)NN=Cc1cc(Cl)cc(Br)c1O [Compound 1k, (E)-2-(3-Bromo-5-chloro-2-hydroxybenzylidene)hydrazine-1-carboximidamide] | 1.92 | 250 µM (≈ 72.9 µg/mL) | 250 µM (≈ 72.9 µg/mL) | 250 µM (≈ 72.9 µg/mL) | 250 µM (≈ 72.9 µg/mL) | 125 µM (≈ 36.4 µg/mL) | 250 µM (≈ 72.9 µg/mL) | 500 µM (≈ 146 µg/mL) | 500 µM (≈ 146 µg/mL) | 500 µM (≈ 146 µg/mL) | 500 µM (≈ 146 µg/mL) | > 500 µM | > 500 µM | > 500 µM | > 500 µM | 250 µM (≈ 72.9 µg/mL) | 500 µM (≈ 146 µg/mL) | 500 µM (≈ 146 µg/mL) | 500 µM (≈ 146 µg/mL) | < 20 µM and 11.7 µM | MIC [11, 31]: 500 µM (≈ 146 µg/mL); MIC [11, 32]: 500 µM (≈ 146 µg/mL); MIC [12, 33]: 500 µM (≈ 146 µg/mL); MIC [12, 34]: 500 µM (≈ 146 µg/mL); MIC [13, 35]: 125 µM (≈ 36.4 µg/mL); MIC [13, 36]: 250 µM (≈ 72.9 µg/mL); IC50 [1, 37]: 22.4 ± 0.67 µM; MIC KP 24 h [14]: 250 µM (≈ 72.9 µg/mL); MIC KP 48 h [14]: 250 µM (≈ 72.9 µg/mL)

— paper PMC8704707 (Pharmaceuticals, 2021)
